In data set [1] the test system is MX-1 (mammary) human tumor xenograft. Nature of the data set: MX-1 human mammary tumor xenograft (subrenal capsule), tumor weight evaluation. Format: in vivo, human tumor in female athymic (nude) mice. Conditions: single dose. How it is done:
(§1) Tumor cells were inoculated ip(intraperitonal) into female, athymic, mice, being either MX-1 (mammary) or LOX (amelanotic melanoma) human tumor xenograph models. The human xenograft tumors were formed by heterotransplantation of surgically removed human tumors into the subrenal capsule of the nude mice. […] The hydrochloride salts of the compounds, designated H, K, and L, and the free base of H, as identified on Table I were administered to the viable human xenograft tumors by a single dose subcutaneous renal cavity (MX-1) injection or interperitonal (LOX) injection to the nude mice test animal in a suspension of 0.9% aqueous sodium chloride solution with "tween-80" and distilled water. The tested compounds were tested against a known cancer tumor inhibiting compound (control) 2,3-dihydro-5-(3'-4'-dichloropheny1)-6,7-bis(n-propylcarbanoxymethylcarbonate)-1H-pyrollizine.
(§2) In both the MX-1 and LOX model, results were expressed as a percentage of the test animal evaluation (T) compared to that for the control (C) and was reported as %T/C. These values are based on all mice in the test.
In the MX-1 model %T/C was evaluated from an estimate of tumor weight in untreated mice as compared to an estimate of tumor weight in treated mice. In such tumor weight evaluation, a low %T/C indicates effective treatment as the tumors of the treated mice are smaller than tumors of the untreated control mice.
(§3) The data presented comprises findings at optimal dosages of particularly effective compounds of the invention as compared to the control.

The test system of data set [2] is LOX (amelanotic melanoma) human tumor xenograft. Nature of the data set: LOX human amelanotic melanoma xenograft, survival evaluation. Conditions: single dose. Format: in vivo, human tumor in female athymic (nude) mice. How it is done: as §1, §2
In the LOX model %T/C was evaluated by survival, meaning that the mean survival time of mice of the control group surviving (C) is compared to the mean survival time of mice who survived the test with treatment (T).
as §3

The test system of data set [3] is lymphocytic leukemia P-388. Nature of the data set: P-388 lymphocytic leukemia test in mice (NCI Protocol 1.200). Format: in vivo, CDF1 female mice. Conditions: for Tox.Day Surv. (survivors/animals tested): day 5. How it is done: Various bis(acyloxymethyl)imidazole derivatives prepared in accord with Examples I-XVIII and designated Samples A-J, were tested for anti-tumor activity in vivo using the lymphocytic leukemia P-388 test procedure in mice with Samples A and B representing controls. The test system was that employed by the National Cancer Institute (NCI) for the preliminary screening of anti-tumor agents, according to Protocol 1.200 (Cancer Chemo. Reports Part 3, Vol. 3, No. 2, page 9; 1972). In the study ascitic fluid containing 6×10^6 cells was implanted in the peritoneal cavity of CDF1 female mice. Each imidazole was given in a single injection, at four to six different dose levels (5-6 mice/dose level) daily for five (5) days beginning 24 hours after tumor innoculation. The control animals received saline. Test criteria was in accord with NCI protocol as follows: toxicity day evaluations were carried out on day 5 (number of survivors/number of animals tested); % T/C data was calculated through mean survival time [% T/C=(MST treated/MST control)x100, where MST=mean survival time]; BWD refers to the body weight difference (grams) of test animals compared to control animals; KE refers to the log of the tumor cell population at the end of treatment relative to tumor cell population before treatment.
Table I sets out the identification of the compounds corresponding to the samples used in this and further Examples. Table II sets out the results of the P-388 tests.

Data set [4] can be described thus: hygroscopicity of the hydrochloride salt (observation). The data set is classed as physicochemical. The settings on record: crystalline hydrochloride salt. How it is done: A solution of the 1-n-propyl-2-methylthio-4,5-bis(N-methyl carbonyloxymethyl)imidazole prepared in Example XVI (1.72 g; 5.21 mmol) in anhydrous dichloromethane (50 mL) was stirred at 0°-5° C. while anhydrous hydrogen chloride gas was bubbled into the solution for 5 minutes through a gas dispersion tube. […] The residue was dried in vacuo for 10 minutes and dissolved in anhydrous dichloromethane (40 mL). The solution was reduced in volume to 10 mL to induce crystallization. Once crystallization had begun, methylene chloride (20 mL) was added and the cold (0° C.) solution was triturated for 10 minutes.

Setting [5] is: optimal dosage 115 mg/kg, hydrochloride salt.
Where [6] appears, read: optimal dosage 200 mg/kg, free base.
The mark [7] stands for this setting: optimal dosage 100 mg/kg, free base, listed as H (Free base).
Setting [8] is: 6.25 mg/kg/inj, daily for 5 days.
Setting [9] is: 12.5 mg/kg/inj, daily for 5 days.
The mark [10] stands for this setting: 100 mg/kg/inj, daily for 5 days.
The mark [11] stands for this setting: Mus musculus, P388, 120 h, read-out: % T/C (mean survival time).
Where [12] appears, read: optimal dosage 135 mg/kg, hydrochloride salt.
Where [13] appears, read: 200 mg/kg/inj, daily for 5 days.
Where [14] appears, read: 400 mg/kg/inj, daily for 5 days.
Setting [15] is: optimal dosage 240 mg/kg, hydrochloride salt.

The structures appear in SMILES notation. Values joined by “and” are separate entries in the source; they are usually repeats but may differ in a detail not shown here. Equal values may be shown once. Read-outs that look alike come from different tables or passages of the source.

On to `CNC(=O)OCc1nc(SC)n(C)c1COC(=O)NC` [H, 1-methyl-2-methylthio-4,5-bis-(N-methylcarbonyloxymethyl)imidazole], for which, in data set [1] (optimal dosage 100 mg/kg, free base), the “MX-1 % T/C wt.” value is reported as -73%. The “MX-1 % T/C wt.” value in data set [1] (setting [5]) is on record as -63%. In data set [1] (setting [6]), the “MX-1 % T/C wt.” value is listed as -56% and the “MX-1 Cures” value is 2/6. In data set [2] (setting [7]), the “LOX % T/C Survl.” value is 365% and 233%; the “LOX Cures” value is 5/6 and 2/6. Further, in data set [2] (setting [5]), the “LOX % T/C Survl.” value worked out at 234% and the “LOX Cures” value is listed as 2/6. Besides, in data set [3] (setting [8]), the “BWD (body weight difference vs control)” value is given as -0.7 g, the “KE (log tumor cell population end vs before treatment)” value was -0.83 and the “Tox.Day Surv. (survivors/animals tested)” value is on record as 5/6. Further, in data set [3] (setting [9]), the “BWD (body weight difference vs control)” value is listed as -1.2 g, the “KE (log tumor cell population end vs before treatment)” value is 1.05 and the “Tox.Day Surv. (survivors/animals tested)” value is 6/6. Besides, in data set [3] (25 mg/kg/inj, daily for 5 days), the “BWD (body weight difference vs control)” value is listed as -1.4 g, the “KE (log tumor cell population end vs before treatment)” value was determined as 1.05 and the “Tox.Day Surv. (survivors/animals tested)” value is 6/6. Moreover, in data set [3] (50 mg/kg/inj, daily for 5 days), the “BWD (body weight difference vs control)” value is reported as -2.6 g, the “KE (log tumor cell population end vs before treatment)” value was 4.21 and the “Tox.Day Surv. (survivors/animals tested)” value is 6/6. Besides, in data set [3] (setting [10]), the “BWD (body weight difference vs control)” value is given as -4.1 g, the “KE (log tumor cell population end vs before treatment)” value worked out at 6.75 and the “Tox.Day Surv. (survivors/animals tested)” value is 6/6. Besides, in data set [3] (setting [11]), the response vs control in vivo at 6.25 mg/kg was found to be 125%, the response vs control in vivo at 12.5 mg/kg is 147%, the response vs control in vivo at 25 mg/kg came to 147% and the response vs control in vivo at 50 mg/kg amounted to 184%. Further, in data set [3] (setting [11]), the response vs control in vivo at 100 mg/kg was determined as 236%.

For the molecule `CCCCCCn1c(SC)nc(COC(=O)NC)c1COC(=O)NC` [L, 1-n-hexyl-2-methylthio-4,5-bis-(N-methylcarbonyloxymethyl)imidazole], the “MX-1 Cures” value in data set [1] (optimal dosage 270 mg/kg, hydrochloride salt) is 6/6. For the same molecule, in data set [2] (setting [12]), the “LOX % T/C Survl.” value is given as 208% and the “LOX Cures” value is reported as 1/6.

Consider `CC(C)NC(=O)OCc1ncn(-c2ccccc2)c1COC(=O)NC(C)C` [B, 1-phenyl-4,5-bis[N-(2-propyl)carbonyloxymethyl]-imidazole, reference compound], for which the “BWD (body weight difference vs control)” value in data set [3] (setting [9]) is listed as -0.4 g; in data set [3] (25 mg/kg/inj, daily for 5 days), -0.1 g; in data set [3] (50 mg/kg/inj, daily for 5 days) it was 0.8 g; in data set [3] (setting [10]), 0.6 g; in data set [3] (setting [13]), 0.2 g; in data set [3] (setting [14]) it was -2.3 g. For the same molecule, the “KE (log tumor cell population end vs before treatment)” value in data set [3] (setting [9]) is on record as -1.53; in data set [3] (25 mg/kg/inj, daily for 5 days), -1.53; in data set [3] (50 mg/kg/inj, daily for 5 days), -1.62; in data set [3] (setting [10]), -1.69; in data set [3] (setting [13]), “toxic”; in data set [3] (setting [14]) it was “toxic”. Moreover, in data set [3] (Mus musculus, P388, 120 h, 12.5 mg/kg/inj, daily for 5 days, read-out: % T/C (mean survival time)), the response vs control in vivo at 12.5 mg/kg was determined as 103%. Further, the response vs control in vivo at 25 mg/kg in data set [3] (Mus musculus, P388, 120 h, 25 mg/kg/inj, daily for 5 days, read-out: % T/C (mean survival time)) came to 103%. In addition, the response vs control in vivo at 50 mg/kg in data set [3] (Mus musculus, P388, 120 h, 50 mg/kg/inj, daily for 5 days, read-out: % T/C (mean survival time)) amounted to 97%. Besides, in data set [3] (Mus musculus, P388, 120 h, 100 mg/kg/inj, daily for 5 days, read-out: % T/C (mean survival time)), the response vs control in vivo at 100 mg/kg is 91%. Further, in data set [3] (Mus musculus, P388, 120 h, 200 mg/kg/inj, daily for 5 days, read-out: % T/C (mean survival time)), the response vs control in vivo at 200 mg/kg stood at 90%. Further, the response vs control in vivo at 400 mg/kg in data set [3] (Mus musculus, P388, 120 h, 400 mg/kg/inj, daily for 5 days, read-out: % T/C (mean survival time)) came out at 90%.

Turning to `CNC(=O)OCc1nc(-c2ccccc2)n(C)c1COC(=O)NC` [G, 1-methyl-2-phenyl-4,5-bis-(N-methylcarbonyloxymethyl)imidazole], in data set [3] (setting [9]), the “BWD (body weight difference vs control)” value is on record as -0.2 g, the “KE (log tumor cell population end vs before treatment)” value is -1.56 and the “Tox.Day Surv. (survivors/animals tested)” value is 5/5. In data set [3] (25 mg/kg/inj, daily for 5 days), the “BWD (body weight difference vs control)” value came out at 0.0 g, the “KE (log tumor cell population end vs before treatment)” value was -1.44 and the “Tox.Day Surv. (survivors/animals tested)” value is 5/5. In data set [3] (50 mg/kg/inj, daily for 5 days), the “BWD (body weight difference vs control)” value was -0.8 g, the “KE (log tumor cell population end vs before treatment)” value is listed as -1.38 and the “Tox.Day Surv. (survivors/animals tested)” value was 5/5. Moreover, in data set [3] (setting [10]), the “BWD (body weight difference vs control)” value is reported as -1.0 g, the “KE (log tumor cell population end vs before treatment)” value is -1.31 and the “Tox.Day Surv. (survivors/animals tested)” value is given as 5/5. In addition, in data set [3] (setting [13]), the “BWD (body weight difference vs control)” value is given as -2.2 g, the “KE (log tumor cell population end vs before treatment)” value is reported as -1.28 and the “Tox.Day Surv. (survivors/animals tested)” value was 5/5. Besides, in data set [3] (setting [11]), the response vs control in vivo at 12.5 mg/kg amounted to 98%, the response vs control in vivo at 25 mg/kg was determined as 107%, the response vs control in vivo at 50 mg/kg came to 112% and the response vs control in vivo at 100 mg/kg came to 116%. The response vs control in vivo at 200 mg/kg in data set [3] (setting [11]) came out at 119%.

Turning to `CCCn1c(SC)nc(COC(=O)NC)c1COC(=O)NC` [K, 1-n-propyl-2-methylthio-4,5-bis-(N-methylcarbonyloxymethyl)imidazole], in data set [1] (setting [15]), the “MX-1 Cures” value is reported as 6/6. Besides, in data set [4], the hygroscopicity entry is “slightly hygroscopic”. Besides, in data set [2] (setting [15]), the “LOX % T/C Survl.” value is 191% and the “LOX Cures” value is 1/6.

Values taken from US5329012A, “Bis(acyloxmethyl)imidazole compounds” (The Research Foundation of State University of New York, priority 1987, dated 1994).
